Laboratory results taken from patent US7235551B2, “1,5-disubstituted-3,4-dihydro-1h-pyrimido[4,5-d]pyrimidin-2-one compounds and their use in treating csbp/p38 kinase mediated diseases” (SmithKline Beecham Corporation, priority 2000, dated 2007).

| SMILES | melting point [°C] |
| --- | --- |
| COc1nc(-c2ccc(F)cc2C)c2c(n1)N(c1c(F)cccc1F)C(=O)NC2 [Example 161, 1-(2,6-Difluorophenyl)-5-(4-fluoro-2-methylphenyl)-7-methoxy-3,4-dihydro-1H-pyrimido[4,5-d]pyrimidin-2-one] | 210 to 211 |
| Cc1cc(F)ccc1-c1nc(OCCO)nc2c1CNC(=O)N2c1c(F)cccc1F [Example 163, 1-(2,6-Difluorophenyl)-5-(4-fluoro-2-methylphenyl)-7-(2-hydroxyethoxy)-3,4-dihydro-1H-pyrimido[4,5-d]pyrimidin-2-one] | 172 to 175 |
| COc1nc(-c2ccccc2)c2c(n1)N(c1c(F)cccc1F)C(=O)NC2 [Example 166, 1-(2,6-Difluorophenyl)-5-phenyl-7-methoxy-3,4-dihydro-1H-pyrimido[4,5-d]pyrimidin-2-one] | 221 to 224 |
| COc1nc(-c2ccccc2)c2c(n1)N(c1ccccc1)C(=O)NC2 [Example 167, 1,5-diphenyl-7-methoxy-3,4-dihydro-1H-pyrimido[4,5-d]pyrimidin-2-one] | 220 to 222 |
